# Results published in patent US11028095B2, “Spiro-lactam and bis-spiro-lactam NMDA receptor modulators and uses thereof” (Aptinyx Inc., priority 2016, dated 2021).
# Like-named read-outs stand apart in the source and are kept apart here.
# Tests used:
# [1] = molecular target: T1, NMDAR2B expressing HEK cell membranes (Homo sapiens, UniProt Q05586+Q13224); assay: NMDAR agonist assay, [3H]MK-801 binding, NMDAR2B; format: biochemical; details: [3H]MK-801 binding
# T1 construct: expressed in transfected cells; host or cells: HEK cells (membrane extract)
# Experimental: (§1) (nonequilibrium conditions).
# (§2) The baseline value was determined from the best fit curve of the DPM values modeled using the GraphPad program and the log(agonist) vs. response(three parameters) algorithm was then subtracted from all points in the dataset.
# [2] = molecular target: T2, NMDAR2B expressing HEK cell membranes (Homo sapiens, UniProt Q13224); assay: NMDAR agonist assay, [3H]MK-801 binding, NMDAR2B; format: biochemical; details: 50 μM glutamate; relative to 1 mM glycine
# T2 construct: expressed in transfected cells; host or cells: HEK cells (membrane extract)
# Experimental: as §1, §2
# Plasma stability (Rat) = format: in vitro ADME
# Experimental: (§3) Plasma stability of disclosed compounds was investigated. The following table indicates the percent of compound remaining after 60 minutes.
# [3] = molecular target: T3, NMDAR2D expressing HEK cell membranes (Homo sapiens, UniProt O15399+Q05586); assay: NMDAR agonist assay, [3H]MK-801 binding, NMDAR2D; format: biochemical; details: for EC50: [3H]MK-801 binding; for Emax: read-out: NMDAR2D: % maximal [3H]MK-801 binding relative to 1 mM glycine
# T3 construct: expressed in transfected cells; host or cells: HEK cells (membrane extract)
# T3 sequence (O15399 28-1336, other chains not shown): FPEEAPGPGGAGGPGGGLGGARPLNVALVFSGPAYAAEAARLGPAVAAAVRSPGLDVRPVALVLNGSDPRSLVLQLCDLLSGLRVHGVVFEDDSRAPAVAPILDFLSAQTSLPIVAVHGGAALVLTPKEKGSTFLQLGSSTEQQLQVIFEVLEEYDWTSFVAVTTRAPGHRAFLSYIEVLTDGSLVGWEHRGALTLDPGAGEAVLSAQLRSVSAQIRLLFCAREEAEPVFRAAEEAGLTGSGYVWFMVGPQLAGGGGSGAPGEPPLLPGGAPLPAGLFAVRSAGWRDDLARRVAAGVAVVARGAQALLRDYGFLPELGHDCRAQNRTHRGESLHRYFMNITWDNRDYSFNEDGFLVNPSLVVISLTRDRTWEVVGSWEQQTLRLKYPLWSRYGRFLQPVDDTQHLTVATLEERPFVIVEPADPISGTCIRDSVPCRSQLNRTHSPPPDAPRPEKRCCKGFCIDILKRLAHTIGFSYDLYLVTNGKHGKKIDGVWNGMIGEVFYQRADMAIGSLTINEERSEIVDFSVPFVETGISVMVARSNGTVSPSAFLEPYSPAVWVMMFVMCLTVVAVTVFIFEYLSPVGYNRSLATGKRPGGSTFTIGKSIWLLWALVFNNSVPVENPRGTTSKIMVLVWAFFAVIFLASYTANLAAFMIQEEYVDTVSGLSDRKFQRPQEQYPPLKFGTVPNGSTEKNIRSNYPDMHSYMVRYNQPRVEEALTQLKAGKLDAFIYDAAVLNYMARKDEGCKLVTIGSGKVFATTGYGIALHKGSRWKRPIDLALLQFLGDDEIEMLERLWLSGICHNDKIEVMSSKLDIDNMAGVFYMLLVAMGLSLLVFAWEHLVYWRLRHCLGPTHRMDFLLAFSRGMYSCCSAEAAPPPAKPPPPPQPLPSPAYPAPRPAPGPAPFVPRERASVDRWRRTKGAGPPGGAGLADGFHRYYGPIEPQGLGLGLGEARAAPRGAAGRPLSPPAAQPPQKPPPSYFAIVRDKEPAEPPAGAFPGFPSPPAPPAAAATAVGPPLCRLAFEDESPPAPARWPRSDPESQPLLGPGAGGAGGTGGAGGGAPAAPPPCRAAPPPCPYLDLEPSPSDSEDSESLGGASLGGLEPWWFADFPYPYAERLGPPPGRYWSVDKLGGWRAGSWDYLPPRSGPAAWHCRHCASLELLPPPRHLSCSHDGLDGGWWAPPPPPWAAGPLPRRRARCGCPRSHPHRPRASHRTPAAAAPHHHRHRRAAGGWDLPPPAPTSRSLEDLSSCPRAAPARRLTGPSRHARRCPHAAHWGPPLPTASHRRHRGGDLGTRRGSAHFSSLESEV
# Experimental: as §1, §2
# [4] = tested on: positive (hedonic) 50-kHz ultrasonic vocalizations (USVs); assay: Positive Emotional Learning (PEL) test; format: in vivo; details: rat, PO, dose 0.1 mg/kg, one hour after administration
# Experimental: Experiments were conducted as described in Burgdorf et al., “The effect of selective breeding for differential rates of 50-kHz ultrasonic vocalizations on emotional behavior in rats,” Devel. […] Rat 50-kHz ultrasonic vocalization (hedonic USVs) is a validated model for the study of positive affective state and is best elicited by rough-and-tumble play.
# The PEL assay measures the acquisition of positive (hedonic) 50-kHz ultrasonic vocalizations (USVs) to a social stimulus, heterospecific rough and tumble play stimulation. Heterospecific rough-and-tumble play stimulation was administered by the experimenter's right hand. One hour after administration of test compound or vehicle negative control (0.5% sodium carboxymethyl cellulose in 0.9% sterile saline vehicle), animals received 3 min of heterospecific rough-and-tumble play that consisted of alternating 15 sec blocks of heterospecific play and 15 sec of no-stimulation. […] Frequency modulated 50-kHz USVs that occurred during each of the no-stimulation periods were quantified to measure PEL. Animals were not habituated to play stimulation before testing. Positive emotional learning was measured during the conditioned stimulus (CS) trials preceding the tickle unconditioned stimulus (UCS) trials. Animals received 15 second trials consisting of 6 CS and 6 UCS trials each (3 min total).
# [5] = Microsomal stability (Rat); format: in vitro ADME; details: rat microsomes
# Experimental: (§4) Microsomal stability of disclosed compounds was investigated. The following table indicates the percent of compound remaining after 60 minutes.
# [6] = Oral pharmacokinetics (plasma, brain, CSF); format: in vivo; details: Sprague Dawley rats, per os, 10 mg/kg; for AUC(0-t) / bioavailability / Tmax / Cmax: rat, plasma, po; for Tmax: normal saline, read-out: Tmax; for Cmax: read-out: Cmax
# Experimental: In another experiment, Sprague Dawley rats were dosed per os using a normal saline formulation containing 10 mg/kg of the compounds identified in the table below. Plasma, brain, and CSF samples were analyzed at various time points over a 24 hour period. The table below summarizes the results of the oral pharmacokinetics.
# [7] = molecular target: T4, NMDAR2C expressing HEK cell membranes (Homo sapiens, UniProt Q05586+Q14957); assay: NMDAR agonist assay, [3H]MK-801 binding, NMDAR2C; format: biochemical; details: for EC50: [3H]MK-801 binding
# T4 construct: expressed in transfected cells; host or cells: HEK cells (membrane extract)
# T4 sequence (Q14957 20-1233, other chains not shown): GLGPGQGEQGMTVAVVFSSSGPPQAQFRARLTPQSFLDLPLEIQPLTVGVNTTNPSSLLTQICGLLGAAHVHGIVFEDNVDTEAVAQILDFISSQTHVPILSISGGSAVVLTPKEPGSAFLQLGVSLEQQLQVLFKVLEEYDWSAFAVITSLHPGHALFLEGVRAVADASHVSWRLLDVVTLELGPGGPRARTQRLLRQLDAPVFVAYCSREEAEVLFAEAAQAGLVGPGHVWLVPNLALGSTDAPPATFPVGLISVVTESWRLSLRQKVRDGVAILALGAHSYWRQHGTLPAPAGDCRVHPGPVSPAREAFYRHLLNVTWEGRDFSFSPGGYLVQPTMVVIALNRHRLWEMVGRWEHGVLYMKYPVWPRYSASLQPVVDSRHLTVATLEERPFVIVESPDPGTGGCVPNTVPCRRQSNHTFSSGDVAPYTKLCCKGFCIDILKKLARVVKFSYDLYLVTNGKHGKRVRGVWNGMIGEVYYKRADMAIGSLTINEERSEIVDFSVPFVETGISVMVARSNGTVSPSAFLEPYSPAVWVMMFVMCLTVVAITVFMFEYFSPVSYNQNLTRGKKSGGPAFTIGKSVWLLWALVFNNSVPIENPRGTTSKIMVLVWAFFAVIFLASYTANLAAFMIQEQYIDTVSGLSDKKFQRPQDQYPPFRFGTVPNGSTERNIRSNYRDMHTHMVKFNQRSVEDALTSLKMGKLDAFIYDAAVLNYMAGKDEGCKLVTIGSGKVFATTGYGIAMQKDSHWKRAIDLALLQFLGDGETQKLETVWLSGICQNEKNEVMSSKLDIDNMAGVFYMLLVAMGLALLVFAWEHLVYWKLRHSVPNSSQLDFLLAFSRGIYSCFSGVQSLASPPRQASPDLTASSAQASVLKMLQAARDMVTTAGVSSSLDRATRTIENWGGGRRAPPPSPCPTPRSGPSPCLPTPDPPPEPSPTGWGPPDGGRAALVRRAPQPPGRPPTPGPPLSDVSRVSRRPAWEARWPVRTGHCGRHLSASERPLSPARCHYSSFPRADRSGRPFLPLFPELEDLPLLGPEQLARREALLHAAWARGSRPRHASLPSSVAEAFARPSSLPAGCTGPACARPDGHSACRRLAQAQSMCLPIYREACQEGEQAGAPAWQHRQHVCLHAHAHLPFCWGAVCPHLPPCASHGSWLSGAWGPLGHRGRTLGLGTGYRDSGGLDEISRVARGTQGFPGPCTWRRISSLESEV
# Experimental: as §1, §2
# [8] = molecular target: T5, NMDAR2A expressing HEK cell membranes (Homo sapiens, UniProt Q12879); assay: NMDAR agonist assay, [3H]MK-801 binding, NMDAR2A; format: biochemical; details: 50 μM glutamate
# T5 construct: expressed in transfected cells; host or cells: HEK cells (membrane extract)
# T5 sequence (Q12879 23-1464, other chains not shown): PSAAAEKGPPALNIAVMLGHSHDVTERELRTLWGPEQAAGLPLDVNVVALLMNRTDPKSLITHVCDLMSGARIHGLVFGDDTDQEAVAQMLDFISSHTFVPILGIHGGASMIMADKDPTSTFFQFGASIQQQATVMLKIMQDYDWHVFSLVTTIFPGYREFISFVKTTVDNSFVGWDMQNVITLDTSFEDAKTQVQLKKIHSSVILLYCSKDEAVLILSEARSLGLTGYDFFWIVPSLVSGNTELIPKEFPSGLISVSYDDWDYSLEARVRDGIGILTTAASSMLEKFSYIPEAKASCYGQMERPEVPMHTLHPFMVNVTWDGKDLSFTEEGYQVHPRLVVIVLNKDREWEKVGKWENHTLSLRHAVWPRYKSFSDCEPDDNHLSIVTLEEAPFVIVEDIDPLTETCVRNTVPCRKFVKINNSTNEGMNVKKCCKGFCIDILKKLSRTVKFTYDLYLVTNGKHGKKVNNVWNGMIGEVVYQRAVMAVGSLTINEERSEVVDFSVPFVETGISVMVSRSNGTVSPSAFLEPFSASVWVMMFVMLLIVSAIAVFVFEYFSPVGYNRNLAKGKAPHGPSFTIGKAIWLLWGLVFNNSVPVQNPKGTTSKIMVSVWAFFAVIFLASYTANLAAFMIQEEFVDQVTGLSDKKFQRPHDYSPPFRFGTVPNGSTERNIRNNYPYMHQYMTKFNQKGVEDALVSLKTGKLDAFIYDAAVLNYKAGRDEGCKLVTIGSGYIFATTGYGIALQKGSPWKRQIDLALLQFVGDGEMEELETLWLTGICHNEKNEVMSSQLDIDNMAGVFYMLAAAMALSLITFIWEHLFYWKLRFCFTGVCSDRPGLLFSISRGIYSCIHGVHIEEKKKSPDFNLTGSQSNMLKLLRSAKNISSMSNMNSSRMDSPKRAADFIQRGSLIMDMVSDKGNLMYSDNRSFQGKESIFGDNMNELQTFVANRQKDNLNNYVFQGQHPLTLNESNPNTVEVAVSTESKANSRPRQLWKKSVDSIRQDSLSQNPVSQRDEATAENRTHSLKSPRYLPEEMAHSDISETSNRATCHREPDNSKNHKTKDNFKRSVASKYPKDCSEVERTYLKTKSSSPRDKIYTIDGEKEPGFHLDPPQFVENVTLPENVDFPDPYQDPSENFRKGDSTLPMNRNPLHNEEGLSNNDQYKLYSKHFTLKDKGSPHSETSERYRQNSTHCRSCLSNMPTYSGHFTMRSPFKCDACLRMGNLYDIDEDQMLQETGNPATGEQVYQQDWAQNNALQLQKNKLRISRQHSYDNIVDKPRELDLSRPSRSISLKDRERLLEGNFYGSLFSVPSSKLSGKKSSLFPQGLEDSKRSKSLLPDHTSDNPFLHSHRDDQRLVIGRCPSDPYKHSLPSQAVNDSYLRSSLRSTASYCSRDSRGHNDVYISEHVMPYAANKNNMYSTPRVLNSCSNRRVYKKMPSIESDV
# Experimental: as §1, §2
# [9] = Microsomal stability (Human); format: in vitro ADME; details: human microsomes
# Experimental: as §4
# IV pharmacokinetics = format: in vivo; details: rat, in vivo, 2 mg/kg, Sprague Dawley rats, normal saline; for C0: read-out: C0; for Vd: read-out: Vss
# Experimental: Sprague Dawley rats were dosed intravenously using a normal saline formulation containing 2 mg/kg of the compounds identified in the below table. The table below summarizes the results of the IV pharmacokinetics.
# Plasma stability (Human) = format: in vitro ADME
# Experimental: as §3
# [10] = molecular target: T6, NMDAR2A expressing HEK cell membranes (Homo sapiens, UniProt Q05586+Q12879); assay: NMDAR agonist assay, [3H]MK-801 binding, NMDAR2A; format: biochemical; details: NMDAR2A: log EC50, 50 μM glutamate; [3H]MK-801 binding
# T6 construct: expressed in transfected cells; host or cells: HEK cells (membrane extract)
# Experimental: as §1, §2
# [11] = tested on: Sciatic nerve chronic constriction nerve injury; assay: Bennett nerve injury assay (mechanical analgesia, paw withdrawal threshold); format: in vivo, Sprague Dawley rats; details: 150 mg/kg PO
# Experimental: The Bennett model of mechanical analgesia is used to assess the analgesic effects of compounds as measured by paw withdrawal threshold. Bennett G J, Xie Y K, “A peripheral mononeuropathy in rat that produces disorders of pain sensation like those seen in man,” Pain 33:87-107, 1988. […] Vehicle animals receive the surgery and then receive vehicle rather than test compound. Animals were tested 1 hr, 24 h and 1 wk post-test compound or vehicle administration.
# Male 2-3 month old Sprague Dawley rats were used. Harlan was the supplier for all studies. Rats were housed in Lucite cages with aspen wood chip bedding, maintained on a 12:12 light:dark cycle (lights on at 5 AM), and given ad libitum access to Purina lab chow (USA) and tap water throughout the study.
# Rats were anesthetized using inhaled isoflurane (2.5%). Sciatic nerve chronic constriction nerve injury surgery was performed as previously described (Bennett and Xie, 1988). An incision (˜1.5 cm in length) was made with a scalpel blade dorsally through skin on the right hind limb, parallel and posterior to femur. Using a small pointed hemostat, the biceps femoris and gluteus superficialis muscles were separated. Using curved blunt forceps, the common sciatic nerve was isolated and exposed. For the mechanical analgesia studies, the whole sciatic nerve was ligated. Using hemostats/forceps and chromic gut (5-0), the nerve was loosely ligated with a square knot; 3 ligatures, 1 mm apart were placed on the nerve. […] Testing occurred approximately 2 weeks post-surgery.
# During testing, rats were acclimated to the surface of a suspended wire mesh grid (1 cm×1 cm, with the wire being 0.3 cm in diameter) for 15-20 min Starting from the smallest, each Von Frey filament was pressed perpendicularly to the plantar surface of the affected (ipsilateral) hind paw until slightly bent and then held for 6 second. If an obvious hind paw withdrawal or a flinching behavior immediately after the withdrawal of the filament was not observed, the next larger filament was used in the same manner. In case of a response, a lower filament was used. This was repeated until six responses were collected.
# For all studies, animals were baselined prior to study start to test for allodynia (defined as a paw withdrawal threshold under 5). A subset of animals was tested with gabapentin (150 mg/kg, PO) to ensure at least 50% analgesia. Once it was confirmed animals were ready for study initiation, animals were balanced across groups. All study investigators were blind to treatment conditions. Animals were dosed with 0.1, 1 or 10 mg/kg of test compound via oral gavage (PO), control sets of animals were dosed with gabapentin (150 mg/kg, PO) or vehicle (0.5% Na-CMC in 0.9% sterile saline, PO). Testing occurred 1 h post-dosing with animals retested 24 hrs and 1 week post-dosing. The percent analgesia calculations for each animal were made using the following equation: % analgesia=[(log(x)−y)/((log (z)−y)]*100, where x=the paw withdrawal threshold for the drug-treated animal in grams, y=the average of the log(x) values for the vehicle treated group, and z=the paw withdrawal threshold for naïve animals in grams (historical value of 15 used). The results for Compound AD, where the percentage of analgesia is measured at 1 hour, 24 hours, and 1 week after compound administration are as follows: for 0.1 mg/kg dose: 37.8% at 1 h, 29.7% at 24 h, and 63.1% at 1 wk; for 1 mg/kg dose: 48.8% at 1 h, 20.6% at 24 h, and 19.8% at 1 wk; and for 10 mg/kg dose: 70.3% at 1 h, 38.8% at 24 h, and 11.3% at 1 wk.
smiles,measurement,setting,value
"CC(C)C(=O)N1C2(CCC13CNC3=O)CNC2=O (single isomer, unassigned) [AH, 5-isobutyryl-2,5,8-triazadispiro[3.1.36.24]undecane-1,7-dione]",EC50,"[1]; 50 μM glutamate, read-out: NMDAR2B log EC50 (converted)",< 1 nM
same,NMDAR2B: % maximal [3H]MK-801 binding relative to 1 mM glycine,[2],+ (<100%=+)
same,Plasma (Rat): percent of compound remaining after 60 minutes,Plasma stability (Rat),100%
same,EC50,"[3]; 50 μM glutamate, read-out: NMDAR2D: log EC50 (converted)",< 1 nM
same,Emax,"[3]; 50 μM glutamate, relative to 1 mM glycine",< 100%
same,Max Effect (mean number of 50 kHz USVs per 15 seconds),[4],** (**: 11-16.9)
same,Microsomal (Rat): percent of compound remaining after 60 minutes,[5],100%
same,CSF Cmax,[6],123 ng/mL
same,Brain Cmax,[6],45.8 ng/mL
same,AUC(0-t),[6]; Sprague Dawley,2570 ng·h/mL
same,bioavailability,[6]; Sprague Dawley,17%
same,Tmax,[6]; Sprague Dawley,1.67 h
same,Cmax,[6]; Sprague Dawley,655 ng/mL
same,EC50,"[7]; 50 μM glutamate, read-out: NMDAR2C: log EC50 (converted)",< 1 nM
same,Emax,"[7]; 50 μM glutamate, relative to 1 mM glycine, read-out: NMDAR2C A: % maximal [3H]MK-801 binding relative to 1 mM glycine",< 100%
same,EC50,"[8]; [3H]MK-801 binding, read-out: NMDAR2A: log EC50 (converted)",< 1 nM
same,NMDAR2A: % maximal [3H]MK-801 binding relative to 1 mM glycine,[8],+ (<100%=+)
same,Microsomal (Human): percent of compound remaining after 60 minutes,[9],100%
same,AUC(0-t),"IV pharmacokinetics; Sprague Dawley, iv",3020 ng·h/mL
same,clearance,"IV pharmacokinetics; Sprague Dawley, iv",10.9 mL/min/kg
same,half-life,"IV pharmacokinetics; Sprague Dawley, iv",3.68 h
same,C0,"IV pharmacokinetics; Sprague Dawley, iv",3870 ng/mL
same,Vd,"IV pharmacokinetics; Sprague Dawley, iv",1.1 L/kg
same,Plasma (Human): percent of compound remaining after 60 minutes,Plasma stability (Human),95%
"O=C1NCC12CCC1(CNC1=O)N2 (single isomer, unassigned) [AJ, 2,5,8-triazadispiro[3.1.36.24]undecane-1,7-dione]",EC50,"[1]; NMDAR2B: log EC50, 50 μM glutamate",< 1 nM
same,NMDAR2B: % maximal [3H]MK-801 binding relative to 1 mM glycine,[2],+ (<100%=+)
same,Plasma (Rat): percent of compound remaining after 60 minutes,Plasma stability (Rat),68%
same,EC50,"[3]; NMDAR2D: log EC50, 50 μM glutamate",< 1 nM
same,Emax,[3],< 100%
same,Max Effect (mean number of 50 kHz USVs per 15 seconds),[4],** (**: 11-16.9)
same,Microsomal (Rat): percent of compound remaining after 60 minutes,[5],100%
same,CSF Cmax,[6],71.9 ng/mL
same,Brain Cmax,[6],0 ng/mL
same,AUC(0-t),[6],2060 ng·h/mL
same,bioavailability,[6],20%
same,Tmax,[6],0.5 h
same,Cmax,[6],1160 ng/mL
same,EC50,"[7]; NMDAR2C: log EC50, 50 μM glutamate",< 1 nM
same,Emax,[7]; read-out: NMDAR2C: % maximal [3H]MK-801 binding relative to 1 mM glycine,< 100%
same,NMDAR2A: % maximal [3H]MK-801 binding relative to 1 mM glycine,[8],+ (<100%=+)
same,EC50,[10],< 1 nM
same,Microsomal (Human): percent of compound remaining after 60 minutes,[9],100%
same,AUC(0-t),IV pharmacokinetics,2090 ng·h/mL
same,clearance,IV pharmacokinetics,15.4 mL/min/kg
same,half-life,IV pharmacokinetics,0.44 h
same,C0,IV pharmacokinetics,4860 ng/mL
same,Vd,IV pharmacokinetics,0.47 L/kg
same,Plasma (Human): percent of compound remaining after 60 minutes,Plasma stability (Human),90%
"NCC1(CC(=O)O)CCCCC1 [gabapentin, reference compound]","analgesia, control group of the study",[11]; 1 week post-administration,under 5%
same,"percentage of analgesia, example (typical) control value",[11]; 1 wk,0%
same,"percentage of analgesia, example (typical) control value",[11]; 1 h,72%
same,"analgesia, control group of the study",[11]; 1 h post-administration,at least 50%
same,"percentage of analgesia, example (typical) control value",[11]; 24 h,16%
same,"analgesia, control group of the study",[11]; 24 h post-administration,under 5%
